Laboratory results reported in US7259188B2, “Methods and pharmaceutical compositions for treatment of anti-estrogen resistant breast cancer using RXR modulators” (priority 1998, dated 2007).
Where two headings read alike, the source gives them in different places. Values belong to the compound of their own block, whether it stands above or below them.

Tests used:
[1] = target: T1, RXRβ (UniProt P28704); format: cell-based
T1 sequence (P28704 1-520): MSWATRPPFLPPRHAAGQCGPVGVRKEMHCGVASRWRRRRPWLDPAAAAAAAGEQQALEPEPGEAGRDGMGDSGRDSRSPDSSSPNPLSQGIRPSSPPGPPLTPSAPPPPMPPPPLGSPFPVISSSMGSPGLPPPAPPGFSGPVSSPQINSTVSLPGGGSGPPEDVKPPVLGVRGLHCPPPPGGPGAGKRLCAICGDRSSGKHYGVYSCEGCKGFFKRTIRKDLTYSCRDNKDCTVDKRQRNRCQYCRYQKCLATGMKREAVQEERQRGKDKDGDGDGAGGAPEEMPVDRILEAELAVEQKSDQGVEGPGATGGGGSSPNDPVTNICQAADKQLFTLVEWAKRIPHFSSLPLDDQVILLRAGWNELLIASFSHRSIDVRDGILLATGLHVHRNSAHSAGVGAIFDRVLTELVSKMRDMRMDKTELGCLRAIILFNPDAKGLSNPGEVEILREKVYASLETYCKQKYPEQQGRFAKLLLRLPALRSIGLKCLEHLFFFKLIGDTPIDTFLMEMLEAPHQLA
Text: Briefly, the co-transfection assay involves the introduction of two plasmids by transient transfection into a retinoid receptor-negative mammalian cell background. The first plasmid contains a retinoid receptor cDNA and directs constitutive expression of the encoded receptor. The second plasmid contains a cDNA that encodes for a readily quantifiable protein, e.g., firefly luciferase or chloramphenicol acetyl transferase (CAT), under control of a promoter containing a retinoid acid response element, which confers retinoid dependence on the transcription of the reporter. […] This assay can be used to accurately measure efficacy and potency of retinoic acid and synthetic retinoids as ligands that interact with the individual retinoid receptor subtypes.

[2] = test system: established mammary tumors; assay: Example 3: established NMU-induced mammary tumors, six weeks of treatment; format: in vivo, Sprague-Dawley rats; conditions: for tumors completely regressed / tumors continued to progress / tumors partially regressed: LGD1069 100 mg/kg or tamoxifen 800 μg/kg
Procedure: (§1) Mammary tumorigenesis was induced by administration of 50 mg/kg of N-nitroso-N-methylurea (NMU) (Sigma, St. Louis, Mo.) to 50 day old virgin female Sprague-Dawley rats (Harlan-SD, Indianapolis, Ind.). NMU was formulated as an aqueous solution of 10 mg/ml by wetting NMU powder with 3% acetic acid and dissolving it in sterile saline. Fresh solutions of NMU were injected within 30 minutes of preparation. The animals were injected in the tail vein with 5 mg NMU/100 g body weight. Rats were housed in a USDA registered facility in accordance with NIH guidelines for the care and use of laboratory animals. […] Beginning five weeks after tumor induction, animals were examined for tumors twice a week. Tumors were measured with electronic calipers (Mitushoyo, Japan) and cross sectional areas were determined by multiplying the longest length of the tumor by the greatest perpendicular width of the tumor.

[3] = test system: mammary carcinoma development; conditions: NMU-treated rat, compared with tamoxifen; cited from earlier work
[4] = test system: tamoxifen-resistant primary tumors; assay: Example 1: tumor response of tamoxifen-resistant NMU-induced mammary tumors; format: in vivo, Sprague-Dawley rats; conditions: additional six weeks; for combined response of partial or complete regression / incidence of progressive disease / complete regression of tumors: LGD1069 100 mg/kg orally daily added to tamoxifen 800 μg/kg sc daily, versus tamoxifen alone; for complete regression of tumors: p<0.05
Procedure: as §1, with “NMU was formulated as an aqueous solution of 10 mg/ml by wetting NMU powder with 3% acetic acid and dissolving it in sterile saline.” left out

[5] = test system: tumors that grew in the presence of the low-dose tamoxifen; assay: Example 2: NMU-induced tumors that grew in the presence of low-dose tamoxifen; conditions: LGD1069 100 mg/kg PO added to low-dose tamoxifen therapy, compared to treatment with tamoxifen (800 μg/kg SC)
[6] = test system: primary mammary tumors; assay: Example 4: NMU-induced mammary tumors, submaximally efficacious doses alone and coadministered; format: in vivo, Sprague-Dawley rats; conditions: for primary mammary tumors regressed: single agent at submaximally efficacious dose: LGD1069 10 mg/kg, tamoxifen 150 mg/kg
Procedure: as §1, with “NMU was formulated as an aqueous solution of 10 mg/ml by wetting NMU powder with 3% acetic acid and dissolving it in sterile saline.” left out

[7] = test system: estrogen receptor positive breast cancers; conditions: patients, tamoxifen treatment; cited from earlier work

SMILES: CC1=C(/C=C/C(C)=C\C=C\C(C)=C\C(=O)O)C(C)(C)CCC1 [9-cis-retinoic acid, reference compound]
Efficacy ([1]; RXRβ, co-transfection assay): 140%

Efficacy [1]: 51%
EC50 ([1]; read-out: Potency): 8 nM
SMILES: Cc1cc2c(cc1/C(=N/O)c1ccc(C(=O)O)cc1)C(C)(C)CCC2(C)C [LDG100324]

SMILES: C=C(c1ccc(C(=O)O)cc1)c1cc2c(cc1C)C(C)(C)CCC2(C)C [LGD1069]
antitumor efficacy on established mammary tumors ([2]; LGD1069 100 mg/kg daily for six weeks, compared with tamoxifen 800 μg/kg): greater efficacy than treatment with tamoxifen
tumors completely regressed ([2]; daily for six weeks): 72.2%
tumors continued to progress ([2]; daily for six weeks): 11.1%
tumors partially regressed ([2]; daily for six weeks): 16.7%
inhibiting mammary carcinoma development (chemopreventive) [3]: as effective as the anti-estrogen tamoxifen
combined response of partial or complete regression [4]: more than 90%
incidence of progressive disease [4]: 3%
complete regression of tumors [4]: 56%
incidence of stable disease ([4]; LGD1069 100 mg/kg orally daily added to tamoxifen, compared with tamoxifen alone): reduced the incidence
amount of progressive disease [5]: significantly reduced the amount of progressive disease
tumors completely regressing ([6]; LGD1069 10 mg/kg coadministered with tamoxifen 150 mg/kg): 26.3%
primary mammary tumors regressed [6]: 10.5%

SMILES: CC/C(=C(\c1ccccc1)c1ccc(OCCN(C)C)cc1)c1ccccc1 [tamoxifen, reference compound]
tumors completely regressed ([2]; daily for six weeks): 33.3%
tumors continued to progress ([2]; daily for six weeks): 28.6%
tumors partially regressed ([2]; daily for six weeks): 33.3%
tumors remained static ([2]; daily for six weeks, tamoxifen 800 μg/kg): 4.8%
estrogen receptor positive breast cancers that respond to treatment [7]: approximately 66%
combined response of partial or complete regression [4]: 44%
incidence of progressive disease [4]: 44%
complete regression of tumors [4]: 16.7%
primary mammary tumors regressed [6]: 5.6%
